# From patent publication US20230183239A1, “ECTONUCLEOTIDE PYROPHOSPHATASE-PHOSPHODIESTERASE 1 (ENPP-1) INHIBITORS AND USES THEREOF” (AbbVie Inc., priority 2017, published 2023)
# Where two headings read alike, the source gives them in different places.
# Key:
# Format in all cases: biochemical
# ENPP1 [1] = target: T1, ENPP1 (Homo sapiens, UniProt P22413); assay: Indirect quantitation of 2',3'-cGAMP hydrolysis (AMP-Glo Assay kit)
# T1 sequence (P22413 1-925): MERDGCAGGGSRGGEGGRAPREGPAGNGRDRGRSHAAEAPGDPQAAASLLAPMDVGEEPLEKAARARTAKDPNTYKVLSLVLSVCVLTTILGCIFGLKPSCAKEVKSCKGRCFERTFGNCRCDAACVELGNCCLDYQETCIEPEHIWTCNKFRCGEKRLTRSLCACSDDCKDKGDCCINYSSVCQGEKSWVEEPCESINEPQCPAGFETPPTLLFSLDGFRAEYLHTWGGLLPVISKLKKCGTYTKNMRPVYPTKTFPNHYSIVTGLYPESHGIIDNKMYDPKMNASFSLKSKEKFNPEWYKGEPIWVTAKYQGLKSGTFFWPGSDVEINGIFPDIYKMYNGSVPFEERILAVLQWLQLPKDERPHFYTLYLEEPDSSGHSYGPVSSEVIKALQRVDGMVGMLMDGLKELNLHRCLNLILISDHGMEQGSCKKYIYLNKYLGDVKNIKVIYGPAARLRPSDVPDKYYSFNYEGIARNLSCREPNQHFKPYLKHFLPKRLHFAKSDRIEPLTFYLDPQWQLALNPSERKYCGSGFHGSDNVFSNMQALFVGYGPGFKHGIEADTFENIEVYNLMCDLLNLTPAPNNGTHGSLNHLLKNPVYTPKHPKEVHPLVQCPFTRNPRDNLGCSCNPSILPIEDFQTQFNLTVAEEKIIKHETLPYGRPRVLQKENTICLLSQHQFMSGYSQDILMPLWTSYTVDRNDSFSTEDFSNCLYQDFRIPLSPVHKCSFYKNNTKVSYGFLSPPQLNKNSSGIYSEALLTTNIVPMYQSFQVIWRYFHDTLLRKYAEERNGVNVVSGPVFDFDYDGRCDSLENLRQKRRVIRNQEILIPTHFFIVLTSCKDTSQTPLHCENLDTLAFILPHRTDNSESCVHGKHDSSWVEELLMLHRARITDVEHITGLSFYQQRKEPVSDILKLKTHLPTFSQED
# ENPP1 [2] = target: T1, ENPP1; assay: ENPP1 enzyme assay with cGAMP substrate (AMP-Glo); set-up: purchased R&D Systems; settings: for inhibition at 10 µM: 10 µM compound; for inhibition at 1 µM: read-out: cGAMP: % Inhibition at 1 µM
# Text: Example B1: ENPP1 Enzyme Assay With cGAMP Substrate
# Ectonucleotide pyrophosphatase/phosphodiesterase 1 (ENPP-1) is a transmembrane glycoprotein that hydrolyzes nucleotides and nucleotide derivatives with the formation of nucleoside-5’-monophosphates. […] The 5’-AMP formed from the reaction is detected using the AMP-Glo® Kit (Promega). The assay kit contains two reagents. The first reagent terminates the enzymatic reaction, removes ATP (using adenylyl cyclase), and converts 5’-AMP produced into ADP (using polyphosphate: AMP phosphotransferase). The second reagent converts ADP to ATP (using adenylate kinase) and generates light from ATP using the luciferin/luciferase reaction.
# Different concentrations of ENPP1 inhibitors are pre-incubated with 5 ng/well of human ENPP-1 enzyme (R&D Systems) for 15 minutes at 37° C. The reaction is initiated by adding 20 µM 2’3’-cGAMP and incubating for 30 minutes at 37° C. The final assay reaction mixture contains a buffer of 50 mM Tris pH 8.0, 250 mM NaCl, 0.5 mM CaCl2, 1 µM ZnCl2 and 1% DMSO. At the end of the incubation, the reaction is stopped by adding 12 µl of AMP-Glo reagent-1 and mixing the reaction uniformly for 5 minutes, followed by incubation at room temperature for one hour. Then 25 µl of AMP Glo reagent-2 is added to the reaction, mixed uniformly with a pipette, and incubated at room temperature for one hour to convert the ADP formed from reagent-1 to ATP and light. The generated light is measured in a Perkin Elmer Victor® instrument.
# (§1) The IC50 values for percent inhibition versus compound concentration are determined by fitting the inhibition curves using a four-parameter variable slope model in GraphPad Prism® software. Ki values are derived from the IC50 values using the Cheng-Prusoff equation: […]
# ENPP1 [3] = target: T1, ENPP1; assay: ENPP1 enzyme assay with TMP-pNP substrate; set-up: purchased R&D Systems; settings: for inhibition at 10 µM: read-out: TMP-pNP: % inhibition at 10 uM, 10 uM compound; for Ki: Ki from IC50 by Cheng-Prusoff
# Protocol: Example B2: ENPP1 Enzyme Assay With TMP-pNP Substrate
# Ectonucleotide pyrophosphatase/phosphodiesterase 1 (ENPP-1) is a transmembrane glycoprotein that hydrolyzes nucleotides and nucleotide derivatives with the formation of nucleotide-5’-monophosphates. ENPP-1 hydrolyzes thymidine 5’monophosphate p-nitrophenyl ester (TMP-pNP) to nucleotide-5’-monophosphate and p-nitrophenol, which is a chromogenic product. The amount of p-nitrophenol product formed is measured using its absorbance at 405 nm, which is directly proportional to enzyme activity. Different concentrations of inhibitors are pre-incubated with 15 ng/well of human ENPP-1 enzyme (R&D Systems) for 15 minutes at 37° C. The reaction is initiated by adding 200 µM TMP-pNP and incubating for 10 minutes at 37° C. The final assay reaction mixture contains a buffer of 50 mM Tris pH 8.0, 250 mM NaCl, 0.5 mM CaCl2, 1 µM ZnCl2 and 1% DMSO. The amount of product formed is measured directly in a Tecan® spectrophotometer. Maximal activity control samples (containing enzyme, substrate, and buffer in the absence of ENPP1 inhibitors: MAX) and background control samples (containing enzyme, substrate, and buffer plus a fully inhibitory concentration (3 µM) of the reference ENPP1 Inhibitor, Example 333: MIN) are simultaneously evaluated in order to calculate the percent inhibition at each compound concentration as follows:
# as §1, with “curves (percent inhibition versus inhibitor concentration)” for “curves”
# ENPP1 [4] = target: T1, ENPP1; assay: Substrate selectivity ratio, inhibition of cGAMP hydrolysis versus ATP hydrolysis; settings: ratio Ki AMP-pNP / Ki cGAMP
# Protocol: The selectivity ratios for inhibition of cGAMP hydrolysis versus ATP hydrolysis were then calculated as follows: […]
# ENPP1 [5] = target: T1, ENPP1; assay: ENPP1 enzyme assay with AMP-pNP substrate (hydrolysis of ATP analog)
# Summary of the method: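 Reactions ran 20 min at 37 °C, pH 8.5 Tris buffer with NaCl, CaCl2, ZnCl2, using 300 µM AMP-pNP and 60 ng/well recombinant human ENPP1; inhibitor range 10 µM–30 pM, duplicates.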
# [6] = cGAMP substrate, Ki from IC50 by Cheng-Prusoff, read-out: ENPP1 Inhibition -cGAMP: Ki
# [7] = cGAMP substrate, Ki from IC50 by Cheng-Prusoff, read-out: cGAMP: Ki
# [8] = AMP-pNP substrate (ATP analog), Ki from IC50 by Cheng-Prusoff, read-out: ENPP1 Inhibition _AMP-pNP: Ki
Ki (ENPP1 [1]; [6]) [nM],inhibition at 10 µM (ENPP1 [3]) [%],Substrate Selectivity: Ki_AMP-pNP/Ki_cGAMP (ENPP1 [4]),Ki (ENPP1 [2]; [7]) [nM],Ki (ENPP1 [3]) [nM],Structure (SMILES),other results
> 1000,< 25,,,,"NS(=O)(=O)NCCC1CCN(c2ncnc3nc[nH]c23)CC1 [Example 23, N-(2-(1-(9H-purin-6-yl)piperidin-4-yl)ethyl)sulfamide]",inhibition at 10 µM (ENPP1 [2]; cGAMP substrate): < 25%
< 100,,19.2,< 100,< 100,"COc1cc2ncnc(N3CCC4(CC3)CCN(S(N)(=O)=O)C4)c2cc1OC [Example 29, 8-(6,7-dimethoxyquinazolin-4-+yl)-2,8-diazaspiro[4.5]decane-2-sulfonamide]",inhibition at 10 µM (ENPP1 [2]; cGAMP substrate): > 75%; Ki (ENPP1 [5]; [8]): < 100 nM
< 100,> 75,>39.0,,,"CNc1nc(N2CCC(CCNS(N)(=O)=O)CC2)c2cc(OC)c(OC)cc2n1 [Example 2, N-(2-(1-(6,7-dimethoxy-2-(methylamino)quinazolin-4-yl)piperidin-4-yl)ethyl)sulfamide]","inhibition at 1 µM (ENPP1 [2]; 1 µM compound, cGAMP substrate): > 75%; Ki (ENPP1 [5]; [8]): > 1000 nM"
< 100,,22.9,< 100,< 100,"COc1cc2nccc(N3CCC(CCNS(N)(=O)=O)CC3)c2cc1OC [Example 43, N-(2-(1-(6,7-dimethoxyquinolin-4-yl)piperidin-4-yl)ethyl)sulfamide]","inhibition at 1 µM (ENPP1 [2]; 1 µM compound, cGAMP substrate): > 75%; Ki (ENPP1 [5]; [8]): 100 to 1000 nM"
< 100,,31.2,< 100,100 to 1000,"COc1cc2ncnc(N3CCc4c(cccc4NS(N)(=O)=O)C3)c2cc1OC [Example 28, N-(2-(6,7-dimethoxyquinazolin-4-yl)-1,2,3,4-tetrahydroisoquinolin-5-yl)sulfamide]",Ki (ENPP1 [5]; [8]): 100 to 1000 nM
100 to 1000,,,100 to 1000,> 1000,"NS(=O)(=O)NCCC1CCN(c2ncnc3ccccc23)CC1 [Example 35, N-(2-(1-(quinazolin-4-yl)piperidin-4-yl)ethyl)sulfamide]",inhibition at 10 µM (ENPP1 [2]; cGAMP substrate): > 75%
> 1000,< 25,,,,"Cn1cnc2c(N3CCC(CCNS(N)(=O)=O)CC3)ncnc21 [Example 24, N-(2-(1-(9-methyl-9H-purin-6-yl)piperidin-4-yl)ethyl)sulfamide]",
> 1000,< 25,,,,"NS(=O)(=O)NCCC1CCN(c2ccncn2)CC1 [Example 18, N-(2-(1-(pyrimidin-4-yl)piperidin-4-yl)ethyl)sulfamide]",
> 1000,,,,,"COc1cc(C(=O)N2CCC(CCNS(N)(=O)=O)CC2)c(N(C)C)cc1OC [Example 45, N-(2-(1-(2-(dimethylamino)-4,5-dimethoxybenzoyl)piperidin-4-yl)ethyl)sulfamide]","inhibition at 1 µM (ENPP1 [2]; 1 µM compound, cGAMP substrate): < 25%"
100 to 1000,50 to 75,,,,"COc1cc2nc(N(C)C)nc(N3CCC(CCNS(N)(=O)=O)CC3)c2cc1OC [Example 3, N-(2-(1-(2-(dimethylamino)-6,7-dimethoxyquinazolin-4-yl)piperidin-4-yl)ethyl)sulfamide]","inhibition at 1 µM (ENPP1 [2]; 1 µM compound, cGAMP substrate): 25 to 50%"
> 1000,< 25,,,,"Cc1cncnc1N1CCC(CCNS(N)(=O)=O)CC1 [Example 17, N-(2-(1-(5-methylpyrimidin-4-yl)piperidin-4-yl)ethyl)sulfamide]",inhibition at 10 µM (ENPP1 [2]; cGAMP substrate): < 25%

# Continued, molecule first:
Structure (SMILES),Ki (ENPP1 [1]; [6]) [nM],inhibition at 10 µM (ENPP1 [3]) [%],Substrate Selectivity: Ki_AMP-pNP/Ki_cGAMP (ENPP1 [4]),Ki (ENPP1 [2]; [7]) [nM],Ki (ENPP1 [3]) [nM],other results
"COc1cc2ncnc(N3CCN(CCNS(N)(=O)=O)CC3)c2cc1OC [Example 40, N-(2-(4-(6,7-dimethoxyquinazolin-4-yl)piperazin-1-yl)ethyl)sulfamide]",,,24.1,,,Ki (ENPP1 [1]): < 100 nM; inhibition at 1 µM (ENPP1 [2]): > 75%; Ki (ENPP1 [5]): 100 to 1000 nM
"NS(=O)(=O)NCCC1CCN(c2ccnc(Nc3ccccn3)n2)CC1 [Example 11, N-(2-(1-(2-(pyridin-2-ylamino)pyrimidin-4-yl)piperidin-4-yl)ethyl)sulfamide]",,,,,,Ki (ENPP1 [1]): > 1000 nM; inhibition at 1 µM (ENPP1 [2]): < 25%; Ki (ENPP1 [5]): > 1000 nM
"COc1cc2nc(-c3ccncc3)nc(N3CCC(CCNS(N)(=O)=O)CC3)c2cc1OC [Example 6, N-(2-(1-(6,7-dimethoxy-2-(pyridin-4-yl)quinazolin-4-yl)piperidin-4-yl)ethyl)sulfamide]",100 to 1000,,,100 to 1000,> 1000,inhibition at 1 µM (ENPP1 [2]): 25 to 50%
"COc1cc2ncnc(NCc3ccc(NS(N)(=O)=O)cc3)c2cc1OC [Example 34, N-(4-(((6,7-dimethoxyquinazolin-4-yl)amino)methyl)phenyl) sulfamidetrifluoroacetate]",< 100,,17.4,< 100,< 100,"inhibition at 1 µM (ENPP1 [2]; 1 µM compound, cGAMP substrate): > 75%; Ki (ENPP1 [5]; [8]): 100 to 1000 nM"
"CCN(C)S(=O)(=O)NCCC1CCN(c2ncnc3cc(OC)c(OC)cc23)CC1 [Example 42, 2-(1-(6,7-dimethoxyquinazolin-4-yl)piperidin-4-yl)ethan-1-amino(N-ethyl-N-methyl)sulfonamide]",,,>96.1,,> 1000,Ki (ENPP1 [1]): 100 to 1000 nM; Ki (ENPP1 [2]): 100 to 1000 nM; Ki (ENPP1 [5]): > 1000 nM
"NS(=O)(=O)NCCC1CCN(c2ccnc(NC(=O)c3cccnc3)n2)CC1 [Example 7, N-(4-(4-(2-(sulfamoylamino)ethyl)piperidin-1-yl)pyrimidin-2-yl)nicotinamide]",> 1000,,,,,inhibition at 1 µM (ENPP1 [2]): < 25%
"NS(=O)(=O)NCCC1CCN(c2ncnc3c2cnn3-c2ccccc2)CC1 [Example 26, N-(2-(1-(1-phenyl-1H-pyrazolo[3,4-d]pyrimidin-4-yl)piperidin-4-yl)ethyl)sulfamide]",> 1000,,,,,inhibition at 1 µM (ENPP1 [2]): < 25%
